# Test results from patent US20230271964A1, “5-AMINO-8-(4-PYRIDYL)-[1,2,4]TRIAZOLO[4,3-C]PYRIMIDIN-3-ONE COMPOUNDS FOR USE AGAINST CANCER” (ASTRAZENECA AB, priority 2020, published 2023).
# What was measured:
# [1] = biological target: human adenosine A1 receptor (Homo sapiens (Human), UniProt P30542); assay: Adenosine receptor inhibition binding assay, [3H]DPCPX, A1 receptor membranes; settings: 1 nM [3H]DPCPX, 25° C., 1 h, Ki from IC50 by Cheng-Prusoff; for Ki: read-out: A1 pKi (converted)
# Experimental: (§1) Inhibition binding assays were performed using 0.2 µg of membranes prepared from HEK293 cells infected with BacMam human adenosine A2A receptor or 1.4 µg of membranes prepared from HEK293 cells infected with BacMam human adenosine A1 receptor. Membranes were incubated in 50 mM Tris-HCl (HEK293-hA2A; pH 7.4) or 50 mM Tris-HCl, 100 mM NaCl, 10 mM MgCl2 (CHO-hA1; pH 7.4) in the presence of varying concentrations of test compound and 1 nM [^3H]ZM241385 (HEK293-hA2A) or [^3H]DPCPX (CHO-hA1) at 25° C. for 1 h. The assay was then terminated by rapid filtration onto GF/B grade Unifilter plates using a TomTec cell harvester, followed by 5 × 0.5 ml washes with ddH2O. Nonspecific binding was defined in the presence of 1 µM CGS 15943 (HEK293-hA2A) or 1 µM DPCPX (CHO-hA1). Bound radioactivity was determined by liquid scintillation counting and inhibition curves were analysed using a four-parameter logistic equation. IC50 values were converted to Ki values with the Cheng-Prusoff equation using a KD value derived from saturation binding studies.
# [2] = biological target: human adenosine A2A receptor (Homo sapiens (Human), UniProt P29274); assay: Adenosine receptor inhibition binding assay, [3H]ZM241385, HEK293 A2A receptor membranes; settings: 1 nM [3H]ZM241385, HEK293-hA2A membranes, 25° C., 1 h, Ki from IC50 by Cheng-Prusoff; for Ki: read-out: A2A pKi (converted)
# human adenosine A2A receptor, sequence (P29274 whole entry): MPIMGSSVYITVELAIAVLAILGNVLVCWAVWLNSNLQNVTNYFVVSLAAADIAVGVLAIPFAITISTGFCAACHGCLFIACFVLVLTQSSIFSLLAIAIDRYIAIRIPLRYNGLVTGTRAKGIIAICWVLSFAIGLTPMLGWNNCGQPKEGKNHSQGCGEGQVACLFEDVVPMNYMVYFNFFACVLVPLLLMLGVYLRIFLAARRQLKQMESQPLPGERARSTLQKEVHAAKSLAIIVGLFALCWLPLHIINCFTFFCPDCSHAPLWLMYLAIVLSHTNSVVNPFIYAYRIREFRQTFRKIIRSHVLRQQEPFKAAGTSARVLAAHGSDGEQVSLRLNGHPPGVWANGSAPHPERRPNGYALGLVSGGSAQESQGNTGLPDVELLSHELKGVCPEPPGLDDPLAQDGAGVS
# Experimental: as §1
# human adenosine A1 receptor, sequence (P30542 whole entry): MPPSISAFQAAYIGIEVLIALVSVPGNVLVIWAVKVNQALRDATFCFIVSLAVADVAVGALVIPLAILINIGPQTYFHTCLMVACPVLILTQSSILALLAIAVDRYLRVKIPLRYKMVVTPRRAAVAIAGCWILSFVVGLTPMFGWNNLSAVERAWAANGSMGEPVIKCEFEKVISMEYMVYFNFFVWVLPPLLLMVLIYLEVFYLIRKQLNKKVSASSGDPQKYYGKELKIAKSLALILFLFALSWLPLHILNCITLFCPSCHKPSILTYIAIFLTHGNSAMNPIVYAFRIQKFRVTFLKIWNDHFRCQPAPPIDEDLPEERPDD
Structure (SMILES),Ki [1] [nM],Ki [2] [nM],A1 pKi [1],A2A pKi [2]
"[2H]c1c([2H])c([2H])c(-c2nc(N)n3c(=O)n(Cc4nccn4C)nc3c2-c2cc(CO)nc(OC)c2)c([2H])c1[2H] [Example 1-62, 5-amino-8-[2-(hydroxymethyl)-6-methoxy-4-pyridyl]-2-[(1-methylimidazol-2-yl)methyl]-7-(2,3,4,5,6-pentadeuteriophenyl)-[1,2,4]triazolo[4,3-c]pyrimidin-3-one]",126,0.251,–,–
"[2H]c1c([2H])c([2H])c(-c2nc(N)n3c(=O)n(Cc4ncoc4C)nc3c2-c2cc(CO)nc(OC)c2)c([2H])c1[2H] [Example 1-63, 5-amino-8-[2-(hydroxymethyl)-6-methoxy-4-pyridyl]-2-[(5-methyloxazol-4-yl)methyl]-7-(2,3,4,5,6-pentadeuteriophenyl)-[1,2,4]triazolo[4,3-c]pyrimidin-3-one]",316,0.0794,–,–
"COc1cc(-c2c(-c3ccc(F)cc3)nc(N)n3c(=O)n(Cc4nccn4C)nc23)cc(CO)n1 [Example 1-65, 5-amino-7-(4-fluorophenyl)-8-[2-(hydroxymethyl)-6-methoxy-4-pyridyl]-2-[(1-methylimidazol-2-yl)methyl]-[1,2,4]triazolo[4,3-c]pyrimidin-3-one]",–,–,7.1,10.0
"Cc1cc(-c2c(-c3ccccc3)nc(N)n3c(=O)n(C4CCN(C(=O)OC(C)(C)C)C4)nc23)cc(C)n1 (centres unmarked) [Example 2-1, tert-butyl 3-[5-amino-8-(2,6-dimethyl-4-pyridyl)-3-oxo-7-phenyl-[1,2,4]triazolo[4,3-c]pyrimidin-2-yl]pyrrolidine-1-carboxylate]",–,–,6.8,7.7
"Cc1cc(-c2c(-c3ccccc3)nc(N)n3c(=O)n(C4CCNC4)nc23)cc(C)n1 (centres unmarked) [Example 2-2, 5-amino-8-(2,6-dimethyl-4-pyridyl)-7-phenyl-2-pyrrolidin-3-yl-[1,2,4]triazolo[4,3-c]pyrimidin-3-one]",–,–,5.7,7.4
"Cc1cc(-c2c(-c3ccccc3)nc(N)n3c(=O)n(C4CCN(C)C4)nc23)cc(C)n1 (centres unmarked) [Example 2-3, 5-amino-8-(2,6-dimethyl-4-pyridyl)-2-(1-methylpyrrolidin-3-yl)-7-phenyl-[1,2,4]triazolo[4,3-c]pyrimidin-3-one]",–,–,6.1,7.8
"Cc1cc(-c2c(-c3ccccc3)nc(N)n3c(=O)n(CC4CCCN4C(=O)OC(C)(C)C)nc23)cc(C)n1 (centres unmarked) [Example 2-4, tert-butyl 2-[[5-amino-8-(2,6-dimethyl-4-pyridyl)-3-oxo-7-phenyl-[1,2,4]triazolo[4,3-c]pyrimidin-2-yl]methyl]pyrrolidine-1-carboxylate]",–,–,6.6,7.9
"Cc1cc(-c2c(-c3ccccc3)nc(N)n3c(=O)n(CC4CCCN4)nc23)cc(C)n1 (centres unmarked) [Example 2-5, 5-amino-8-(2,6-dimethyl-4-pyridyl)-7-phenyl-2-(pyrrolidin-2-ylmethyl)-[1,2,4]triazolo[4,3-c]pyrimidin-3-one]",–,–,6.1,7.4
"Cc1cc(-c2c(-c3ccccc3)nc(N)n3c(=O)n(CC4CCCN4C)nc23)cc(C)n1 (centres unmarked) [Example 2-6, 5-amino-8-(2,6-dimethyl-4-pyridyl)-2-[(1-methylpyrrolidin-2-yl)methyl]-7-phenyl-[1,2,4]triazolo[4,3-c]pyrimidin-3-one]",–,–,6.2,9.1
"Cc1cc(-c2c(-c3ccccc3)nc(N)n3c(=O)n(C[C@H]4CCCN4C)nc23)cc(C)n1 [Example 2-7, 5-amino-8-(2,6-dimethyl-4-pyridyl)-2-[[(2R)-1-methylpyrrolidin-2-yl]methyl]-7-phenyl-[1,2,4]triazolo[4,3-c]pyrimidin-3-one]",–,–,7.4,9.3
"Cc1cc(-c2c(-c3ccccc3)nc(N)n3c(=O)n(C[C@@H]4CCCN4C)nc23)cc(C)n1 [Example 2-8, 5-amino-8-(2,6-dimethyl-4-pyridyl)-2-[[(2S)-1-methylpyrrolidin-2-yl]methyl]-7-phenyl-[1,2,4]triazolo[4,3-c]pyrimidin-3-one]",–,–,6.8,9.0
"COCCN1CCC[C@H]1Cn1nc2c(-c3cc(C)nc(C)c3)c(-c3ccccc3)nc(N)n2c1=O [Example 2-9, 5-amino-8-(2,6-dimethyl-4-pyridyl)-2-[[(2S)-1-(2-methoxyethyl)pyrrolidin-2-yl]methyl]-7-phenyl-[1,2,4]triazolo[4,3-c]pyrimidin-3-one]",–,–,6.1,8.4
"COCCN1CCC[C@@H]1Cn1nc2c(-c3cc(C)nc(C)c3)c(-c3ccccc3)nc(N)n2c1=O [Example 2-10, 5-amino-8-(2,6-dimethyl-4-pyridyl)-2-[[(2R)-1-(2-methoxyethyl)pyrrolidin-2-yl]methyl]-7-phenyl-[1,2,4]triazolo[4,3-c]pyrimidin-3-one]",–,–,6.3,8.2
"Cc1cc(-c2c(-c3ccccc3)nc(N)n3c(=O)n(C[C@@H]4CC(F)(F)CN4)nc23)cc(C)n1 [Example 2-11, 5-amino-2-[[(2S)-4,4-difluoropyrrolidin-2-yl]methyl]-8-(2,6-dimethyl-4-pyridyl)-7-phenyl-[1,2,4]triazolo[4,3-c]pyrimidin-3-one]",–,–,6.0,8.7
"Cc1cc(-c2c(-c3ccccc3)nc(N)n3c(=O)n(C[C@H]4CC(F)(F)CN4)nc23)cc(C)n1 [Example 2-12, 5-amino-2-[[(2R)-4,4-difluoropyrrolidin-2-yl]methyl]-8-(2,6-dimethyl-4-pyridyl)-7-phenyl-[1,2,4]triazolo[4,3-c]pyrimidin-3-one]",–,–,6.4,8.1
"Cc1cc(-c2c(-c3ccccc3)nc(N)n3c(=O)n(C[C@@H]4CC(F)(F)CN4C)nc23)cc(C)n1 [Example 2-13, 5-amino-2-[[(2S)-4,4-difluoro-1-methyl-pyrrolidin-2-yl]methyl]-8-(2,6-dimethyl-4-pyridyl)-7-phenyl-[1,2,4]triazolo[4,3-c]pyrimidin-3-one]",–,–,6.3,8.2
"Cc1cc(-c2c(-c3ccccc3)nc(N)n3c(=O)n(C[C@H]4CCCO4)nc23)cc(C)n1 [Example 2-16, 5-amino-8-(2,6-dimethyl-4-pyridyl)-7-phenyl-2-[[(2R)-tetrahydrofuran-2-yl]methyl]-[1,2,4]triazolo[4,3-c]pyrimidin-3-one]",–,–,6.7,9.2
"Cc1cc(-c2c(-c3ccccc3)nc(N)n3c(=O)n(C[C@H]4C[C@H](F)CN4)nc23)cc(C)n1 [Example 2-18, 5-amino-8-(2,6-dimethyl-4-pyridyl)-2-[[(2R,4S)-4-fluoropyrrolidin-2-yl]methyl]-7-phenyl-[1,2,4]triazolo[4,3-c]pyrimidin-3-one]",–,–,6.4,8.2
"Cc1cc(-c2c(-c3ccccc3)nc(N)n3c(=O)n(C[C@H]4C[C@@H](F)CN4)nc23)cc(C)n1 [Example 2-19, 5-amino-8-(2,6-dimethyl-4-pyridyl)-2-[[(2R,4R)-4-fluoropyrrolidin-2-yl]methyl]-7-phenyl-[1,2,4]triazolo[4,3-c]pyrimidin-3-one]",–,–,6.2,8.0
"Cc1cc(-c2c(-c3ccccc3)nc(N)n3c(=O)n(C[C@@H]4C[C@H](F)CN4)nc23)cc(C)n1 [Example 2-20, 5-amino-8-(2,6-dimethyl-4-pyridyl)-2-[[(2S,4S)-4-fluoropyrrolidin-2-yl]methyl]-7-phenyl-[1,2,4]triazolo[4,3-c]pyrimidin-3-one]",–,–,6.3,8.5
"Cc1cc(-c2c(-c3ccccc3)nc(N)n3c(=O)n(C[C@@H]4C[C@@H](F)CN4)nc23)cc(C)n1 [Example 2-21, 5-amino-8-(2,6-dimethyl-4-pyridyl)-2-[[(2S,4R)-4-fluoropyrrolidin-2-yl]methyl]-7-phenyl-[1,2,4]triazolo[4,3-c]pyrimidin-3-one]",–,–,6.4,8.4
"Cc1cc(-c2c(-c3ccccc3)nc(N)n3c(=O)n(C[C@@H]4C[C@H](O)CN4)nc23)cc(C)n1 [Example 2-22, 5-amino-8-(2,6-dimethyl-4-pyridyl)-2-[[(2S,4S)-4-hydroxypyrrolidin-2-yl]methyl]-7-phenyl-[1,2,4]triazolo[4,3-c]pyrimidin-3-one]",–,–,5.9,8.2
